The supplement of paper PMC11061612

Assays:
Experiment in all cases: Bliss excess, mean over the matrix (fraction); higher = more synergy
[1] = system: LK-2 (Squamous Cell Lung Carcinoma)
In short: (§1)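 After 24 hours at 37°C and 5% CO2 in 1536-well plates, cells in DMEM/F12 or RPMI plus 10% FBS received two-drug dose matrices for 72 hours. Viability came from CellTiter-Glo 2.0 luminescence and was scaled as inhibition, anchored at 0 by vehicle wells and at 1 by blank wells. Combination Emax is taken as the second-highest inhibition in the matrix, and Bliss excess as the observed combination effect less EA + EB − EA·EB, with EA and EB the single-agent effects.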

[2] = system: KE-37 (T-Lymphoblastic Leukemia)
In short: as §1

[3] = system: LB996-RCC (Kidney Carcinoma)
In short: as §1

[4] = system: OAW-42 (Ovarian Carcinoma)
In short: as §1

[5] = system: CAL-120 (Breast Carcinoma)
In short: as §1

[6] = system: RERF-GC-1B (Gastric Carcinoma)
In short: as §1

[7] = system: 23132-87 (Gastric Carcinoma)
In short: as §1

[8] = system: PANC-03-27 (Pancreatic Carcinoma)
In short: as §1

[9] = system: RERF-LC-Sq1 (Squamous Cell Lung Carcinoma)
In short: as §1

[10] = system: PC-3_[JPC-3] (Lung Adenocarcinoma)
In short: as §1

[11] = system: CAL-62 (Thyroid Gland Carcinoma)
In short: as §1

[12] = system: OPM-2 (Plasma Cell Myeloma)
In short: as §1

[13] = system: L-1236 (Hodgkin's Lymphoma)
In short: as §1

[14] = system: SHP-77 (Small Cell Lung Carcinoma)
In short: as §1

A2058 (Melanoma) = system: A2058 (Melanoma)
In short: as §1

[15] = system: COLO-680N (Esophageal Squamous Cell Carcinoma)
In short: as §1

[16] = system: RCM-1 (Colorectal Carcinoma)
In short: as §1

[17] = system: LXF-289 (Lung Adenocarcinoma)
In short: as §1

[18] = system: TE-8 (Esophageal Squamous Cell Carcinoma)
In short: as §1

[19] = system: NCI-H2342 (Lung Adenocarcinoma)
In short: as §1

Structure (SMILES) | Bliss excess [1] | Bliss excess [2] | Bliss excess [3] | Bliss excess [4] | Bliss excess [5] | Bliss excess [6] | Bliss excess [7] | Bliss excess [8] | Bliss excess [9] | Bliss excess [10] | Bliss excess [11] | Bliss excess [12] | Bliss excess [13] | Bliss excess [14] | Bliss excess (A2058 (Melanoma)) | Bliss excess [15] | Bliss excess [16] | Bliss excess [17] | Bliss excess [18] | Bliss excess [19]
NC1(C(=O)N[C@@H](CCO)c2ccc(Cl)cc2)CCN(c2ncnc3[nH]ccc23)CC1 [Capivasertib] + COc1nnc2ccc(N3CCC(c4ccc(OCCN5CCN(C)C(=O)[C@H]5C)cc4)CC3)nn12 [AZD5153] (first compound max 10 µM, 7x7, partner max 1 µM) | 0.0566 | -0.045 | 0.0131 | 0.0972 | 0.101 | 0.0375 | 0.0623 | -0.007 | 0.0617 | -0.0186 | -0.0078 | -0.0129 | -0.0938 | -0.0995 | 0.0597 | 0.0355 | 0.0153 | 0.0995 | -0.0718 | 0.0361
Cc1c2c(nn1C)CSCc1cc(n(C)n1)CSc1cc(c3ccccc3c1)OCCCc1c(C(=O)O)n(C)c3c-2c(Cl)ccc13 [AZD5991] + CC1(C)CCC(CN2CCN(c3ccc(C(=O)NS(=O)(=O)c4ccc(NCC5CCOCC5)c([N+](=O)[O-])c4)c(Oc4cnc5[nH]ccc5c4)c3)CC2)=C(c2ccc(Cl)cc2)C1 [Venetoclax] (first compound max 1 µM, 7x7, partner max 1 µM) | 0.0293 | 0.0273 | -0.0251 | 0.0028 | -0.0284 | -0.0126 | 0.0019 | -0.0397 | -0.0191 | -0.0503 | -0.0325 | 0.0217 | 0.0632 | 0.0977 | 0.0967 | -0.0255 | 0.0136 | 0.0108 | 0.0098 | -0.0599
CC1(C)CCC(CN2CCN(c3ccc(C(=O)NS(=O)(=O)c4ccc(NCC5CCOCC5)c([N+](=O)[O-])c4)c(Oc4cnc5[nH]ccc5c4)c3)CC2)=C(c2ccc(Cl)cc2)C1 [Venetoclax] + C[C@@H]1COCCN1C2=NC(=NC(=C2)C3(CC3)[S@](=N)(=O)C)C4=C5C=CNC5=NC=C4 [AZD6738] (first compound max 1 µM, 7x7, partner max 10 µM) | -0.0205 | 0.0293 | -0.066 | -0.016 | -0.0118 | -0.0579 | -0.0422 | -0.0556 | -0.0476 | -0.0438 | 0.0023 | -0.0462 | -0.019 | -0.007 | -0.0008 | -0.0004 | -0.0542 | -0.0138 | -0.0603 | -0.0209
CC1(C)CCC(CN2CCN(c3ccc(C(=O)NS(=O)(=O)c4ccc(NCC5CCOCC5)c([N+](=O)[O-])c4)c(Oc4cnc5[nH]ccc5c4)c3)CC2)=C(c2ccc(Cl)cc2)C1 [Venetoclax] + CCN(CCO)CCCOc1ccc2c(Nc3cc(CC(=O)Nc4cccc(F)c4)[nH]n3)ncnc2c1 [AZD2811] (first compound max 1 µM, 7x7, partner max 1 µM) | 0.0197 | -0.0266 | -0.0133 | -0.0059 | -0.014 | 0.0028 | -0.0136 | -0.028 | 0.0197 | -0.095 | 0.0363 | 0.085 | -0.0197 | 0.0432 | 0.0655 | -0.0166 | -0.0144 | -0.0678 | 0.0482 | -0.019
Cn1cnc2c(F)c(Nc3ccc(Br)cc3Cl)c(C(=O)NOCCO)cc21 [Selumetinib] + C[C@@H]1COCCN1C2=NC(=NC(=C2)C3(CC3)[S@](=N)(=O)C)C4=C5C=CNC5=NC=C4 [AZD6738] (first compound max 10 µM, 7x7, partner max 10 µM) | 0.0613 | 0.0087 | -0.0871 | -0.0257 | 0.0117 | 0.152 | -0.0627 | -0.0117 | 0.0516 | -0.0671 | 0.0142 | -0.0263 | -0.041 | 0.0421 | 0.059 | -0.0258 | -0.132 | -0.0165 | -0.0289 | -0.0577
Cc1c2c(nn1C)CSCc1cc(n(C)n1)CSc1cc(c3ccccc3c1)OCCCc1c(C(=O)O)n(C)c3c-2c(Cl)ccc13 [AZD5991] + Cc1cc2ncnn2cc1Nc1ncc2c(n1)n(C1CCOCC1)c(=O)n2C [AZD7648] (first compound max 1 µM, 7x7, partner max 10 µM) | 0.0019 | -0.0059 | -0.0662 | -0.0419 | -0.0059 | -0.0085 | -0.0679 | -0.0286 | -0.0088 | -0.0306 | -0.0187 | -0.0357 | 0.0299 | -0.0359 | -0.067 | -0.0177 | -0.0149 | -0.0889 | -0.069 | -0.0535
Cc1c2c(nn1C)CSCc1cc(n(C)n1)CSc1cc(c3ccccc3c1)OCCCc1c(C(=O)O)n(C)c3c-2c(Cl)ccc13 [AZD5991] + C=CCn1c(=O)c2cnc(Nc3ccc(N4CCN(C)CC4)cc3)nc2n1-c1cccc(C(C)(C)O)n1 [AZD1775] (first compound max 1 µM, partner max 1 µM) | -0.0217 | 0.0334 | -0.008 | 0.0001 | -0.0143 | 0.0041 | 0.0274 | 0.0186 | 0.0112 | 0.005 | -0.0385 | -0.0119 | -0.0319 | -0.0378 | 0.0959 | 0.0254 | -0.0271 | -0.029 | -0.058 | -0.0144
